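All cell lines were grown in 96-well plates and treated with compound for 48 hours. The concentration for 50% growth inhibition is given as GI50. TGI denotes the concentration required for complete inhibition of growth.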
How the values were obtained:
Assay in all cases: NCI-60 cell line screen, 48 h
MOLT-4 leukemia = system: MOLT-4 leukemia
RXF 393 renal = system: RXF 393 renal
HOP-62 NSCLC = system: HOP-62 NSCLC
HCC-2998 colon = system: HCC-2998 colon
NCI-H226 lung = system: NCI-H226 lung
SNB-19 CNS = system: SNB-19 CNS
RPMI-8226 leukemia = system: RPMI-8226 leukemia
OVCAR-3 ovarian = system: OVCAR-3 ovarian
A549 NSCLC = system: A549 NSCLC
SF-295 CNS = system: SF-295 CNS
OVCAR-8 ovarian = system: OVCAR-8 ovarian
PC-3 prostate = system: PC-3 prostate
SW-620 colon = system: SW-620 colon
K-562 leukemia = system: K-562 leukemia
EKVX NSCLC = system: EKVX NSCLC
SK-MEL-5 melanoma = system: SK-MEL-5 melanoma
U251 CNS = system: U251 CNS
KM12 colon = system: KM12 colon
HS 578T breast = system: HS 578T breast
TK-10 renal = system: TK-10 renal
HL-60(TB) leukemia = system: HL-60(TB) leukemia
COLO 205 colon = system: COLO 205 colon
NCI-H522 lung = system: NCI-H522 lung
OVCAR-5 ovarian = system: OVCAR-5 ovarian
HCT-15 colon = system: HCT-15 colon
HCT-116 colon = system: HCT-116 colon
SK-OV-3 ovarian = system: SK-OV-3 ovarian
LOX IMVI melanoma = system: LOX IMVI melanoma
SF-539 CNS = system: SF-539 CNS
NCI-H460 lung = system: NCI-H460 lung
786-0 renal = system: 786-0 renal
SR leukemia = system: SR leukemia
NCI/ADR-RES ovarian = system: NCI/ADR-RES ovarian
HOP-92 NSCLC = system: HOP-92 NSCLC
SK-MEL-2 melanoma = system: SK-MEL-2 melanoma
MDA-MB-231 breast = system: MDA-MB-231 breast
A498 renal = system: A498 renal
OVCAR-4 ovarian = system: OVCAR-4 ovarian
IGROV1 ovarian = system: IGROV1 ovarian
UACC-62 melanoma = system: UACC-62 melanoma
M14 melanoma = system: M14 melanoma
DU-145 prostate = system: DU-145 prostate
BT-549 breast = system: BT-549 breast
SN12C renal = system: SN12C renal
UO-31 renal = system: UO-31 renal
CCRF-CEM leukemia = system: CCRF-CEM leukemia
MCF7 breast = system: MCF7 breast
MALME-3M melanoma = system: MALME-3M melanoma
ACHN renal = system: ACHN renal
HT29 colon = system: HT29 colon
SF-268 CNS = system: SF-268 CNS
SNB-75 CNS = system: SNB-75 CNS
NCI-H23 lung = system: NCI-H23 lung
CAKI-1 renal = system: CAKI-1 renal

## COC(=O)[C@@H](C)C[C@H](Cc1ccccc1)NC(=O)c1nc([C@@H](C[C@H](C(C)C)N(C)C(=O)[C@@H](NC(=O)[C@H]2CCCCN2C)C(C)C)OC(C)=O)sc1C(C)C
MOLT-4 leukemia
  GI50: 13.9 nM
  TGI: 14500 nM
RXF 393 renal
  GI50: < 3.33 nM
  TGI: 7780 nM
HOP-62 NSCLC
  GI50: 12.9 nM
  TGI: 10400 nM
HCC-2998 colon
  GI50: < 3.33 nM
  TGI: 1440 nM
NCI-H226 lung
  GI50: 12.2 nM
  TGI: 1370 nM
SNB-19 CNS
  GI50: < 3.33 nM
  TGI: > 33300 nM
RPMI-8226 leukemia
  GI50: < 3.33 nM
  TGI: 6960 nM
OVCAR-3 ovarian
  GI50: < 3.33 nM
  TGI: 70.3 nM
A549 NSCLC
  GI50: 18.7 nM
  TGI: 15700 nM
SF-295 CNS
  GI50: < 3.33 nM
  TGI: 276 nM
OVCAR-8 ovarian
  GI50: 7.92 nM
  TGI: 8620 nM
PC-3 prostate
  GI50: < 3.33 nM
  TGI: > 33300 nM
SW-620 colon
  GI50: < 3.33 nM
  TGI: > 25700 nM
K-562 leukemia
  GI50: < 3.33 nM
  TGI: 5430 nM
EKVX NSCLC
  GI50: 13.5 nM
  TGI: > 33300 nM
SK-MEL-5 melanoma
  GI50: < 3.33 nM
  TGI: 44.9 nM
U251 CNS
  GI50: 12 nM
  TGI: 8510 nM
KM12 colon
  GI50: < 3.33 nM
  TGI: 4200 nM
HS 578T breast
  GI50: 5.03 nM
  TGI: 1340 nM
TK-10 renal
  GI50: 117 nM
  TGI: 14400 nM
HL-60(TB) leukemia
  GI50: < 3.33 nM
  TGI: < 3.33 nM
COLO 205 colon
  GI50: 5.22 nM
  TGI: 40.1 nM
NCI-H522 lung
  GI50: < 3.33 nM
  TGI: 55 nM
OVCAR-5 ovarian
  GI50: 13.6 nM
  TGI: 16000 nM
HCT-15 colon
  GI50: 33.5 nM
  TGI: 4430 nM
HCT-116 colon
  GI50: < 3.33 nM
  TGI: 476 nM
SK-OV-3 ovarian
  GI50: < 3.33 nM
  TGI: 33100 nM
LOX IMVI melanoma
  GI50: 7.91 nM
  TGI: 3930 nM
SF-539 CNS
  GI50: 7 nM
  TGI: 24.2 nM
NCI-H460 lung
  GI50: 4.5 nM
  TGI: 3520 nM
786-0 renal
  GI50: < 3.33 nM
  TGI: 1060 nM
SR leukemia
  GI50: < 3.33 nM
  TGI: > 15000 nM
NCI/ADR-RES ovarian
  GI50: 216 nM
  TGI: > 7800 nM
HOP-92 NSCLC
  GI50: 219 nM
  TGI: > 21600 nM
SK-MEL-2 melanoma
  GI50: 5.03 nM
  TGI: 5730 nM
MDA-MB-231 breast
  GI50: 9.02 nM
  TGI: 2200 nM
A498 renal
  GI50: < 3.33 nM
  TGI: 7.76 nM
OVCAR-4 ovarian
  GI50: 10.3 nM
  TGI: > 33300 nM
IGROV1 ovarian
  GI50: < 3.33 nM
  TGI: > 11900 nM
UACC-62 melanoma
  GI50: < 3.33 nM
  TGI: 32600 nM
M14 melanoma
  GI50: 3.38 nM
  TGI: 12.7 nM
DU-145 prostate
  GI50: < 3.33 nM
  TGI: 434 nM
BT-549 breast
  GI50: < 3.33 nM
  TGI: 83.7 nM
SN12C renal
  GI50: 7.65 nM
  TGI: 4510 nM
UO-31 renal
  GI50: 15.4 nM
  TGI: 5370 nM
CCRF-CEM leukemia
  GI50: 7.93 nM
  TGI: > 33300 nM
MCF7 breast
  GI50: < 3.33 nM
  TGI: > 25600 nM
MALME-3M melanoma
  GI50: 42.4 nM
  TGI: 5810 nM
ACHN renal
  GI50: < 3.33 nM
  TGI: 7060 nM
HT29 colon
  GI50: < 3.33 nM
  TGI: 583 nM
SF-268 CNS
  GI50: 18.4 nM
  TGI: 7720 nM
SNB-75 CNS
  GI50: 3.88 nM
  TGI: 9380 nM
NCI-H23 lung
  GI50: 9.65 nM
  TGI: 16100 nM
CAKI-1 renal
  GI50: 4.83 nM
  TGI: 5530 nM
